{"source": "patent US8735140B2", "about": "“Preservation and composition of bioprocess algae for production of lipids, seedstock, and feed” (Kuehnle AgroSystems, Inc., priority 2008, dated 2014)", "system": "algae strains KAS503, KAS633 and KAS635", "test": "Sorbitol treatment prior to alginate embedding, cell recovery after preservation", "type": "cell-based", "procedure": "In one specific embodiment, cells are treated with trehalose solution at various concentrations and left overnight. Cells are centrifuged the next day to remove the trehalose solution, and then re-suspended in sterile 0.5M D-sorbitol (Fisher Scientific […]) dissolved in salt or fresh-water medium as required by specific algae species. Cells are left to stand for 2 hours with mild agitation. After 2 hours, cells are centrifuged again to remove the 0.5M sorbitol solution and re-suspended in fresh or salt-water medium. Cells are counted after the re-suspension. Cell viability is determined by comparing the cell growth in control set with the experimental set. Specifically, cell counts are performed on all samples. The averaged density value (in cells per ml) for all the cultures after treatment is defined as “rejuvenation cell count.” In some samples, the percent recovery of cells immediately after storage is also determined. The formulae are illustrated as follows: Growth=(rejuvenation cell count)/(initial cell count) Cell recovery after storage=(cell density after storage)/(initial cell density), with controls set at 100% cell recovery. Viability after storage and rejuvenation in nutrient medium=(Growth of treatment)/(Growth of control)×100%, with controls set at 100% viability"}
{"compound": "OC[C@@H](O)[C@@H](O)[C@H](O)[C@@H](O)CO", "note": "[sorbitol, D-sorbitol]", "values": [{"measurement": "Cell recovery after preservation", "result": "increases cell recovery"}]}
